Tests used:
[1] = test system: Factor VII; assay: In vivo determination of efficacy of novel lipid formulations (FVII knockdown, ED50); parameters: species or system C57Bl/6 mice; conditions: dose resulting in a 50% reduction in plasma FVII levels compared to control animals; FVII siRNA in cationic lipid/DSPC/cholesterol/PEG-lipid 40/10/40/10; intravenous, 24 h
Method: Cationic lipid containing particles were made using the preformed vesicle method. Cationic lipid, DSPC, cholesterol and PEG-lipid were solubilised in ethanol at a molar ratio of 40/10/40/10, respectively. The lipid mixture was added to an aqueous buffer (50 mM citrate, pH 4) with mixing to a final ethanol and lipid concentration of 30% (vol/vol) and 6.1 mg/mL respectively and allowed to equilibrate at room temperature for 2 min before extrusion. The hydrated lipids were extruded through two stacked 80 nm pore-sized filters (Nuclepore) at 22° C. using a Lipex Extruder (Northern Lipids, Vancouver, BC) until a vesicle diameter of 70-90 nm, as determined by Nicomp analysis, was obtained. This generally required 1-3 passes.
The FVII siRNA (solubilised in a 50 mM citrate, pH 4 aqueous solution containing 30% ethanol) was added to the vesicles, pre-equilibrated to 35° C., at a rate of […] with mixing. After a final target siRNA/lipid ratio of 0.06 (wt/wt) was achieved, the mixture was incubated for a further 30 min at 35° C. to allow vesicle re-organization and encapsulation of the FVII siRNA. The ethanol was then removed and the external buffer replaced with PBS (155 mM NaCl, 3 mM Na2HPO4, 1 mM KH2PO4, pH 7.5) by either dialysis or tangential flow diafiltration. The final encapsulated siRNA-to-lipid ratio was determined after removal of unencapsulated siRNA using size-exclusion spin columns or ion exchange spin columns.
Test formulations were initially assessed for their FVII knockdown in female 7-9 week old, 15-25 g, female C57Bl/6 mice at 0.1, 0.3, 1.0 and 5.0 mg/kg with 3 mice per treatment group. All studies included animals receiving either phosphate-buffered saline (PBS, Control group) or a benchmark formulation. Formulations were diluted to the appropriate concentration in PBS immediately prior to testing. Mice were weighed and the appropriate dosing volumes calculated (10 μl/g body weight). Test and benchmark formulations as well as PBS (for Control animals) were administered intravenously via the lateral tail vein. Animals were anesthetised 24 h later with an intraperitoneal injection of Ketamine/Xylazine and 500-700 μl of blood was collected by cardiac puncture into serum separator tubes (BD Microtainer). Blood was centrifuged at 2,000×g for 10 min at 15° C. and serum was collected and stored at −70° C. until analysis. Serum samples were thawed at 37° C. for 30 min, diluted in PBS and aliquoted into 96-well assay plates. Factor VII levels were assessed using a chromogenic assay (Biophen FVII kit, Hyphen BioMed) according to manufacturer's instructions and absorbance measured in microplate reader equipped with a 405 nm wavelength filter. Plasma FVII levels were quantified and ED50s (dose resulting in a 50% reduction in plasma FVII levels compared to control animals) calculated using a standard curve generated from a pooled sample of serum from Control animals. Those formulations of interest showing high levels of FVII knockdown (ED50<<0.1 mg/kg) were re-tested in independent studies at a lower dose range to confirm potency and establish ED50.

[2] = Determination of pKa of formulated lipids (TNS fluorescence); format: physicochemical; conditions: probe 2-(p-toluidino)-6-naphthalenesulfonic acid (TNS), 1 µM final, vesicles of cationic lipid/DSPC/CH/PEG-c-DOMG 40:10:40:10, pH 2 to 11
Method: The pKa's of the different ionisable cationic lipids were determined essentially as described (Eastman et al 1992 Biochemistry 31:4262-4268) using the fluorescent probe 2-(p-toluidino)-6-naphthalenesulfonic acid (TNS), which is non-fluorescent in water but becomes appreciably fluorescent when bound to membranes. Vesicles composed of cationic lipid/DSPC/CH/PEG-c-DOMG (40:10:40:10 mole ratio) were diluted to 0.1 mM in buffers (130 mM NaCl, 10 mM CH3COONH4, 10 mM MES, 10 mM HEPES) of various pH's, ranging from 2 to 11. An aliquot of the TNS aqueous solution (1 μM final) was added to the diluted vesicles and after a 30 second equilibration period the fluorescent of the TNS-containing solution was measured at excitation and emission wavelengths of 321 nm and 445 nm, respectively. The pKa of the cationic lipid-containing vesicles was determined by plotting the measured fluorescence against the pH of the solutions and fitting the data to a Sigmodial curve using the commercial graphing program IgorPro.

[3] = test system: Factor VII; assay: In vivo evaluation of FVII siRNA 1661 using cyclic cationic lipid based formulations (FVII assay); parameters: species or system rodent; conditions: lipid particles with FVII siRNA 1661
Method: C57BL/6 mice (Charles River Labs, MA) and Sprague-Dawley rats (Charles River Labs, MA) received either saline or siRNA in desired formulations via tail vein injection at a volume of 0.01 mL/g. At various time points post-administration, animals were anesthesized by isofluorane inhalation and blood was collected into serum separator tubes by retro orbital bleed. Serum levels of Factor VII protein were determined in samples using a chromogenic assay (Coaset Factor VII, DiaPharma Group, OH or Biophen FVII, Aniara Corporation, OH) according to manufacturer protocols. A standard curve was generated using serum collected from saline treated animals. In experiments where liver mRNA levels were assessed, at various time points post-administration, animals were sacrificed and livers were harvested and snap frozen in liquid nitrogen. Frozen liver tissue was ground into powder. Tissue lysates were prepared and liver mRNA levels of Factor VII and apoB were determined using a branched DNA assay (QuantiGene Assay, Panomics, Calif.).
The cyclic cationic lipids 506, 512 and 519-based formulations as described below were prepared, characterized and evaluated in vivo by FVII assay.

Structure (SMILES) | pKa [2] | ED50 [1] [mg/kg] | knockdown of FVII protein levels in vivo [3]
CCCCC/C=C\C/C=C\CCCCCCCCC1(CCCCCCCCCCCC)O[C@H]2C[C@H](N(C)C)C[C@H]2O1 (stereo partly drawn) [ALNY-109] | 6.75 | 2.0 | 
CCCCC/C=C\C/C=C\CCCCCCCCC1(CCCCCCCC/C=C\C/C=C\CCCCC)O[C@H]2CC[C@H](CN(C)C)C[C@H]2O1 [ALNY-122] |  | 0.55 | 
CCCCC/C=C\C/C=C\CCCCCCCC1OC2(CCC(N(C)C)CC2)OC1CCCCCCC/C=C\C/C=C\CCCCC (stereo not drawn) [ALNY-158] |  | 1.40 | 
CCCCC/C=C\C/C=C\CCCCCCCCC1(CCCCCCCC/C=C\C/C=C\CCCCC)O[C@H]2C[C@@H](N(C)C)C[C@H]2O1 [Compound 519] |  |  | almost complete knockdown
CCCCC/C=C\C/C=C\CCCCCCCCC1(CCCCCCCC/C=C\C/C=C\CCCCC)O[C@H]2C[C@H](N(C)C)CC[C@H]2O1 [ALNY-103] | 6.98 | 2.5 | 
CCCCC/C=C\C/C=C\CCCCCCCCC(CCCCCCCC/C=C\C/C=C\CCCCC)NC(=O)OCCCN(C)C [ALNY-192] | 7.21 | 2.1 | 
CCCCC/C=C\C/C=C\CCCCCCCCC1(CCCCCCCC/C=C\C/C=C\CCCCC)O[C@H]2C[C@H](CN(C)C)C[C@H]2O1 [ALNY-116] |  | 1.0 | 
CCCCC/C=C\C/C=C\CCCCCCCCC1(CCCCCCCC/C=C\C/C=C\CCCCC)O[C@H]2C[C@@H](CN(C)C)C[C@H]2O1 [ALNY-115] |  | 1.0 | 
CCCCC/C=C\C/C=C\CCCCCCCCC1(CCCCCCCC/C=C\C/C=C\CCCCC)O[C@H]2C[C@H](N(C)C)C[C@H]2O1 [ALNY-100] | 6.4 | 0.3 | 
CCCCC/C=C\C/C=C\CCCCCCCCC1(CCCCCCCC/C=C\C/C=C\CCCCC)O[C@H]2COC(CN(C)C)[C@H]2O1 (stereo partly drawn) [ALNY-144] |  | 0.60 | 
CCCCC/C=C\C/C=C\CCCCCCCC1OC2(CCN(C)CC2)OC1CCCCCCC/C=C\C/C=C\CCCCC (stereo not drawn) [ALNY-156] | 6.08 |  | 
CCCCC/C=C\C/C=C\CCCCCCCCC(CCCCCCCC/C=C\C/C=C\CCCCC)ON=C(C)CCN(C)C [ALNY-149] | 5.81 | 0.1 | 
CCCCC/C=C\C/C=C\CCCCCCCCC1(CCCCCCCC/C=C\C/C=C\CCCCC)O[C@@H]2CC[C@H](N(C)C)C[C@H]2O1 [ALNY-169] |  | 2.60 | 
CCCCC/C=C\C/C=C\CCCCCCCCC1(CCCCCCCC/C=C\C/C=C\CCCCC)OCC(CCN(C)Cc2cccnc2)O1 (stereo not drawn) [ALNY-140] | 4.95 | >5.0 | 
CCCCC/C=C\C/C=C\CCCCCCCCC1(CCCCCCCC/C=C\C/C=C\CCCCC)O[C@H]2C[C@@H](N(C)C)CC[C@H]2O1 [ALNY-102] | 7.3 | 2.0 | 
CCCCC/C=C\C/C=C\CCCCCCCCC(CCCCCCCC/C=C\C/C=C\CCCCC)CNC(=O)OCCCN(C)C [ALNY-200] | 7.57 | >5.00 | 
CCCCC/C=C\C/C=C\CCCCCCCCC1(CCCCCCCC/C=C\C/C=C\CCCCC)O[C@H]2CN(C)C[C@H]2O1 [ALNY-104] | 5.65 | 2.5 | 
CCCCC/C=C\C/C=C\CCCCCCCCC(CCCCCCCC/C=C\C/C=C\CCCCC)=NNCCN(C)C [ALNY-175] |  | 2.7 | 
CCCCC/C=C\C/C=C\CCCCCCCCO[C@H]1C[C@H](N(C)C)C[C@H]1OCCCCCCCC/C=C\C/C=C\CCCCC [ALNY-117] |  | >5.0 | 
CCCCC/C=C\C/C=C\CCCCCCCCC(CCCCCCCC/C=C\C/C=C\CCCCC)CNC(=O)CCN(C)C [ALNY-201, 3-(dimethylamino)-N-((11Z,14Z)-2-((9Z,12Z)-octadeca-9,12-dienyl)icosa-11,14-dienyl)propanamide] | 8.02 | >5.0 | 
CCCCC/C=C\C/C=C\CCCCCCCCC(CCCCCCCC/C=C\C/C=C\CCCCC)NC(=O)OCCN(C)C [ALNY-202] | 6.52 | 0.12 | 
CCCCC/C=C\C/C=C\CCCCCCCCC1(CCCCCCCC/C=C\C/C=C\CCCCC)O[C@H]2CCN(C)C[C@H]2O1 [ALNY-105] | 5.6 | 1.5 | 

Further lines, with some results ahead:

pKa [2] | Structure (SMILES) | ED50 [1] [mg/kg] | knockdown of FVII protein levels in vivo [3]
5.5 | CCCCC/C=C\C/C=C\CCCCCCCCC1(CCCCCCCC/C=C\C/C=C\CCCCC)O[C@H]2[C@@H](OC)OC(CN(C)C)[C@H]2O1 (stereo partly drawn) [ALNY-151] | >5.00 | 
6.49 | CCCCC/C=C\C/C=C\CCCCCCCCC(CCCCCCCC/C=C\C/C=C\CCCCC)OC(=O)NCCN(C)C [ALNY-190] | 0.47 | 
5.18 | CCCCC/C=C\C/C=C\CCCCCCCCC(CCCCCCCC/C=C\C/C=C\CCCCC)SSCCN(C)C [ALNY-160] | 2.00 | 
6.6 | CCCCC/C=C\C/C=C\CCCCCCCC1OC(C)(CCN(C)C)OC1CCCCCCC/C=C\C/C=C\CCCCC (stereo not drawn) [ALNY-152] | 0.15 | 
7.07 | CCCCC/C=C\C/C=C\CCCCCCCCC(CCCCCCCC/C=C\C/C=C\CCCCC)CNC(=O)OCCN(C)C [ALNY-203] | 5.0 | 
6.55 | CCCCC/C=C\C/C=C\CCCCCCCCC1(CCCCCCCCCCCCCCCCCC)O[C@H]2C[C@H](N(C)C)C[C@H]2O1 (stereo partly drawn) [ALNY-108] | 0.75 | 
6.62 | CCCCC/C=C\C/C=C\CCCCCCCCC(CCCCCCCC/C=C\C/C=C\CCCCC)CN(C)CCN(C)C [ALNY-141] | 0.14 | 
6.53 | CCCCC/C=C\C/C=C\CCCCCCCCC1(CCCCCCCC/C=C\C/C=C\CCCCC)OCC2(CCN(C)CC2)O1 [ALNY-148] | 0.3 | 
6.63 | CCCCC/C=C\C/C=C\CCCCCCCCC1(CCCCCCCC/C=C\CCCCCCCC)O[C@H]2C[C@H](N(C)C)C[C@H]2O1 (stereo partly drawn) [ALNY-107] | 0.25 | 
6.5 | CCCCC/C=C\C/C=C\CCCCCCCCC1(CCCCCCCCCC)O[C@H]2C[C@H](N(C)C)C[C@H]2O1 (stereo partly drawn) [ALNY-110] | 2.0 | 
6.43 | CCCCC/C=C\C/C=C\CCCCCCCCC1(CCCCCCCC/C=C\C/C=C\CCCCC)O[C@H]2C[C@@H](N(C)C)C[C@H]2O1 [ALNY-101] | 0.1 | 
6.85 | CCCCC/C=C\C/C=C\CCCCCCCCC1(CCCCCCCC/C=C\C/C=C\CCCCC)O[C@H]2CCN(C)CC[C@H]2O1 [ALNY-106] | 0.3 | 
6.6 | CCCCC/C=C\C/C=C\CCCCCCCCC1(CCCCCCCC/C=C\C/C=C\CCCCC)O[C@H]2CC[C@@H](CN(C)C)C[C@H]2O1 [ALNY-121] | 0.5 | 

— US20180064807A1, “NOVEL LIPIDS AND COMPOSITIONS FOR THE DELIVERY OF THERAPEUTICS” (Arbutus Biopharma Corporation, priority 2008, published 2018)
